Here are results for six molecules from ChEMBL document CHEMBL1201862, “PubChem BioAssay data set” (2004).

Calls of active or inactive are those of the source.

The target in experiment [1] is Peroxisome proliferator-activated receptor gamma/Nuclear receptor corepressor 2 (Homo sapiens, UniProt P37231+Q9Y618). Type of experiment: functional.
Experiment [2] deals with Peroxisome proliferator-activated receptor gamma/Nuclear receptor coactivator 3 (Homo sapiens, UniProt P37231). Kind of experiment: TR-FRET dose response biochemical High Throughput Screening assay for agonists of the steroid receptor coactivator 3 (SRC-3) recruitment by the peroxisome proliferator-activated receptor gamma (PPAR gamma): non-selective agonists. [Related pubchem assays: 1301 (Confirmation screen.), 1048 (Primary screen.)]. Type of experiment: functional. For orientation: In TR-FRET formats the signal depends on donor and acceptor labels being close together.

Experiment [3] has as its target Peroxisome proliferator-activated receptor gamma/Nuclear receptor coactivator 1 (Homo sapiens, UniProt P37231). Kind of experiment: TR-FRET dose response biochemical High Throughput Screening assay for agonists of the steroid receptor coactivator 1 (SRC-1) recruitment by the peroxisome proliferator-activated receptor gamma (PPAR gamma): non-selective agonists. [Related pubchem assays (depositor defined):AID1300, AID1808, AID504735, AID631]. The experiment is classed as protein assay.

Experiment [4] has as its target Photoreceptor-specific nuclear receptor (Homo sapiens, UniProt Q9Y5X4). The experiment is classed as functional.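 Further: potency for compounds that break the NR2E3 corepressor complex and count as activators.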
In a further experiment the target is fMet-Leu-Phe receptor (Homo sapiens, UniProt P21462). Kind of experiment: FPR ligands, dose response (AID 519). The experiment is classed as functional.
The target in experiment [5] is Peroxisome proliferator-activated receptor gamma/Nuclear receptor coactivator 2 (Homo sapiens, UniProt P37231). Kind of experiment: TR-FRET dose response biochemical High Throughput Screening assay for agonists of the steroid receptor coactivator 2 (SRC-2) recruitment by the peroxisome proliferator-activated receptor gamma (PPAR gamma): non-selective agonists. [Related pubchem assays: 1297, 1032 ]. Type of experiment: functional.

A short description of experiment [6]: growth suppression of PTEN-null colon cells, dose response, cell-based, HCT116 PTEN knockout (AID 1047).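 Further: HCT116 colon tumor cells with PTEN knocked out; cells exposed to compound for 60 hours before readout; potency for loss of cell viability measured by luminescence.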 Type of experiment: functional.
In experiment [7] the target is G-protein coupled receptor 35 (Homo sapiens, UniProt Q9HC97). Nature of the experiment: GPR35 antagonists blocking zaprinast-driven arrestin recruitment, primary screen, imaging, U2OS, beta-arrestin-GFP, zaprinast agonist (AID 2058).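 Further: antagonist potency meaning inhibition of agonist-induced arrestin redistribution.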 The experiment is classed as functional.
Experiment [8] is described as follows: inhibitors of intracellular T. cruzi replication, confirmation, NIH3T3 host cells, beta-gal luminescence (AID 2044).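 Further: intracellular parasites grown in NIH/3T3 mouse fibroblasts as host cells; luminescent beta-galactosidase reporter signal from transgenic T. cruzi replicating inside host cells; inhibitors lower the luminescence signal.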 Type of experiment: functional, cell-based.
Experiment [9] can be described thus: growth suppression of beta-catenin-knockout colon cells, dose response, cell-based, HCT116, human colon tumor (AID 1045).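 Further: HCT116 colon tumor cells with beta catenin knocked out; cells exposed to compound for 60 hours.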 The experiment is classed as functional.
Experiment [10] is described as follows: cytotoxicity toward NIH3T3 fibroblasts, dose response, counter-screen, cell-based, ATP luminescence, mouse fibroblasts (AID 2010).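 Further: cells exposed to compound for about 90 hours before reading.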 Type of experiment: functional. Background: The purpose of a counterscreen is to sort out artefacts and off-target activity.
A further experiment has as its system HeLa. Kind of experiment: HeLa cell cytotoxicity, dose response, cytotoxicity control, 24 h, cherry-picked samples (AID 504726).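 Further: potency for cytotoxicity as loss of luminescence signal.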 Type of experiment: functional, cell-based. The note with it: Homo sapiens.
Experiment [11] can be described thus: Luminescence Cell-Based Dose Response HTS to Identify Inhibitors of 5'UTR Stem-Loop Driven Prion Protein mRNA Translation in H4 Neuroglioblastoma Cells. [Related pubchem assays: 1827 (Project Summary), 1813 (Primary HTS)]. The experiment is classed as functional.
Experiment [12] in a line: inhibitors of SNCA 5'UTR-driven translation, confirmation, luminescence, H4 neuroglioblastoma cells, dose confirmation (AID 2454).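 Further: H4 neuroglioblastoma cells carrying an alpha-synuclein 5'UTR luciferase reporter; potency for inhibition of the luciferase signal.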 The experiment is classed as functional, cell-based.
Experiment [13] is described as follows: luciferase reporter signal reduction – luminescence, H4-C neuroglioblastoma cells, dose response (AID 2458).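 Further: H4 neuroglioblastoma cells stably carrying a luciferase reporter gene fusion.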 The experiment is classed as functional, cell-based.
Experiment [14] can be described thus: inhibitors of firefly luciferase expression or activity, dose response, H4 neuroglioma cells, luminescence (AID 1990). Type of experiment: functional, cell-based.
The test system of a further experiment is J774.A1. Nature of the experiment: Confirmation of image-based Screening Assay for Inhibitors of Phagocytosis. [Related pubchem assays (depositor defined):AID1029, AID1643]. The experiment is classed as functional, cell-based. The note with it: Mus musculus.
Experiment [15] in a line: inhibitors of SNCA 5'UTR-driven reporter translation, confirmation, H4 neuroglioma cells, luminescence (AID 1988). Type of experiment: functional, cell-based.
Another experiment can be described thus: cells. Type of experiment: functional, cell-based.
Experiment [16] concerns the target Intestinal-type alkaline phosphatase (Homo sapiens, UniProt P09923). Kind of experiment: Dose Response confirmation of uHTS hits from a small molecule inhibitors of human intestinal alkaline phosphatase via a luminescent assay. [Related pubchem assays (depositor defined):AID2544, AID2574]. The experiment is classed as functional.
A further experiment deals with Vero. Nature of the experiment: Vero cell cytotoxicity, cytotoxicity control for flavivirus capping enzyme inhibitors (AID 588742). The experiment is classed as functional. The conditions noted are these: Chlorocebus sabaeus.
For the next experiment, the target named is Beta-galactosidase (Escherichia coli, UniProt Q8VNN2). Nature of the experiment: beta-galactosidase enzyme inhibitors and activators, dose response, artefact control for CCR6 antagonist project, biochemical, E. coli enzyme, set 3 (AID 504712). Type of experiment: functional.
Beta-galactosidase, sequence (Q8VNN2 whole entry): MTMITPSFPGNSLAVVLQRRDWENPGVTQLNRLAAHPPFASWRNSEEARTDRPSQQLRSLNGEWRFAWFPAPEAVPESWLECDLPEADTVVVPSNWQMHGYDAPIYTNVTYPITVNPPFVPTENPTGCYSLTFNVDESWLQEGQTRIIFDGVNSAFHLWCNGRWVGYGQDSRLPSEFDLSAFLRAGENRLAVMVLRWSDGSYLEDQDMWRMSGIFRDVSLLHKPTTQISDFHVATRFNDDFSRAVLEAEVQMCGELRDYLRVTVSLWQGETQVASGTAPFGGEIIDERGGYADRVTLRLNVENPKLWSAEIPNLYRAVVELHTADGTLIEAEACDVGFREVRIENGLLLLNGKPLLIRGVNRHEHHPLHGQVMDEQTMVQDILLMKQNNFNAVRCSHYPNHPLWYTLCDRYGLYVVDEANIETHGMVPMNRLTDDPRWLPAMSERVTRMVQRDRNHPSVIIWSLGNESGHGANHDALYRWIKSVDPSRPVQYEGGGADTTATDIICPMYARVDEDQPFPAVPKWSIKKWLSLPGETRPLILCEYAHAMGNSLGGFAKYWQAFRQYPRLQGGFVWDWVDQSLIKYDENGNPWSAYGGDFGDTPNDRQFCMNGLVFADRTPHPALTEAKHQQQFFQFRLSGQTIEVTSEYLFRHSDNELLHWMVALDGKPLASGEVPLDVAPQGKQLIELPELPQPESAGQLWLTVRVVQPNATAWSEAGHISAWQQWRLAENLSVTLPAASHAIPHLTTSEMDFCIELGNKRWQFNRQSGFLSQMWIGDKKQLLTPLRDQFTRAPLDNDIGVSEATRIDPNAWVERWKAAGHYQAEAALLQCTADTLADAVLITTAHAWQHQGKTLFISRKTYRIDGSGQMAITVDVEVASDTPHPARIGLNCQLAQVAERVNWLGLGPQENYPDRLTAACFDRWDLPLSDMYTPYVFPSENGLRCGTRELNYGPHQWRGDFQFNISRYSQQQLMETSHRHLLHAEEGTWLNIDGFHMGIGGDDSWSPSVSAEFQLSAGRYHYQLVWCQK

fMet-Leu-Phe receptor, sequence (P21462 whole entry): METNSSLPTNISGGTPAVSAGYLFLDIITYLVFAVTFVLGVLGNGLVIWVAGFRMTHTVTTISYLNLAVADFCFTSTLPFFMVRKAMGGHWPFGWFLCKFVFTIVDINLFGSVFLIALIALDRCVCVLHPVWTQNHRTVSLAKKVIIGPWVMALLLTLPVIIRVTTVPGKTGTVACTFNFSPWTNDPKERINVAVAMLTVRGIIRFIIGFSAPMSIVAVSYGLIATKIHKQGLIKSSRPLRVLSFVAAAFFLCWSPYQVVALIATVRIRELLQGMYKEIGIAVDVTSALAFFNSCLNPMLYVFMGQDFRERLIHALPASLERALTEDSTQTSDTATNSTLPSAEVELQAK
G-protein coupled receptor 35, sequence (Q9HC97 whole entry): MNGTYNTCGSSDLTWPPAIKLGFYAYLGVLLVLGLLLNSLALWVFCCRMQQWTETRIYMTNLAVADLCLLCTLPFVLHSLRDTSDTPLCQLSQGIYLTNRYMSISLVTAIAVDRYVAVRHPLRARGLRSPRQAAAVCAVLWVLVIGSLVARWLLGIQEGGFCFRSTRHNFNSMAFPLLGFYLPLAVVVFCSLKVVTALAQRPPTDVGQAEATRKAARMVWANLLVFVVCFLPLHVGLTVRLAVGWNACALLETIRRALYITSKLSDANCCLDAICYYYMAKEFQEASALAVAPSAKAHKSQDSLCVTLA
Photoreceptor-specific nuclear receptor, sequence (Q9Y5X4 whole entry): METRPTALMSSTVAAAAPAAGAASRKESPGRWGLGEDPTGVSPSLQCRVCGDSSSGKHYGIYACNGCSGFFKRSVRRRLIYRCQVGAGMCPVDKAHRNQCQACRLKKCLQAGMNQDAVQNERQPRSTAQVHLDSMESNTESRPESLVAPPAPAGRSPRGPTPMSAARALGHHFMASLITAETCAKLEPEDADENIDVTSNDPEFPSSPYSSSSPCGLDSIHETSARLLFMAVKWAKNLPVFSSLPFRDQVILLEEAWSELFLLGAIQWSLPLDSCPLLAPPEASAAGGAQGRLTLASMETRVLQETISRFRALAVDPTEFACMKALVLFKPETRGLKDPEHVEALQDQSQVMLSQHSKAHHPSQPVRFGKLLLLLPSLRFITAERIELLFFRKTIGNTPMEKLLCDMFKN
Peroxisome proliferator-activated receptor gamma/Nuclear receptor coactivator 1, sequence (P37231 whole entry): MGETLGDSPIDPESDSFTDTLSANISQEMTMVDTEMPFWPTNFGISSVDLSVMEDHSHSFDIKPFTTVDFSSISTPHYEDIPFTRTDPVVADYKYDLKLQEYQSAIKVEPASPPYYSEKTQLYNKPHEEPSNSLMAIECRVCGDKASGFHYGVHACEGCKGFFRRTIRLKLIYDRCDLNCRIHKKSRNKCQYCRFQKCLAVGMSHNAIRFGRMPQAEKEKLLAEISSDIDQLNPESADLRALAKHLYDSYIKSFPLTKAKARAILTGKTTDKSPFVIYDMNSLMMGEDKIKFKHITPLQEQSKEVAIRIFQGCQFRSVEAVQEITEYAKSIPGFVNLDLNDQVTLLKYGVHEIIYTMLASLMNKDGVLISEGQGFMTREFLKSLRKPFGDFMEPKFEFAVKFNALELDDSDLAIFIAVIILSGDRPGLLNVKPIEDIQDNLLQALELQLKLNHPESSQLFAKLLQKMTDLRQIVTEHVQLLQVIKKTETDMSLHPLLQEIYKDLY
Peroxisome proliferator-activated receptor gamma/Nuclear receptor coactivator 1, sequence (Q15788 whole entry, further chain): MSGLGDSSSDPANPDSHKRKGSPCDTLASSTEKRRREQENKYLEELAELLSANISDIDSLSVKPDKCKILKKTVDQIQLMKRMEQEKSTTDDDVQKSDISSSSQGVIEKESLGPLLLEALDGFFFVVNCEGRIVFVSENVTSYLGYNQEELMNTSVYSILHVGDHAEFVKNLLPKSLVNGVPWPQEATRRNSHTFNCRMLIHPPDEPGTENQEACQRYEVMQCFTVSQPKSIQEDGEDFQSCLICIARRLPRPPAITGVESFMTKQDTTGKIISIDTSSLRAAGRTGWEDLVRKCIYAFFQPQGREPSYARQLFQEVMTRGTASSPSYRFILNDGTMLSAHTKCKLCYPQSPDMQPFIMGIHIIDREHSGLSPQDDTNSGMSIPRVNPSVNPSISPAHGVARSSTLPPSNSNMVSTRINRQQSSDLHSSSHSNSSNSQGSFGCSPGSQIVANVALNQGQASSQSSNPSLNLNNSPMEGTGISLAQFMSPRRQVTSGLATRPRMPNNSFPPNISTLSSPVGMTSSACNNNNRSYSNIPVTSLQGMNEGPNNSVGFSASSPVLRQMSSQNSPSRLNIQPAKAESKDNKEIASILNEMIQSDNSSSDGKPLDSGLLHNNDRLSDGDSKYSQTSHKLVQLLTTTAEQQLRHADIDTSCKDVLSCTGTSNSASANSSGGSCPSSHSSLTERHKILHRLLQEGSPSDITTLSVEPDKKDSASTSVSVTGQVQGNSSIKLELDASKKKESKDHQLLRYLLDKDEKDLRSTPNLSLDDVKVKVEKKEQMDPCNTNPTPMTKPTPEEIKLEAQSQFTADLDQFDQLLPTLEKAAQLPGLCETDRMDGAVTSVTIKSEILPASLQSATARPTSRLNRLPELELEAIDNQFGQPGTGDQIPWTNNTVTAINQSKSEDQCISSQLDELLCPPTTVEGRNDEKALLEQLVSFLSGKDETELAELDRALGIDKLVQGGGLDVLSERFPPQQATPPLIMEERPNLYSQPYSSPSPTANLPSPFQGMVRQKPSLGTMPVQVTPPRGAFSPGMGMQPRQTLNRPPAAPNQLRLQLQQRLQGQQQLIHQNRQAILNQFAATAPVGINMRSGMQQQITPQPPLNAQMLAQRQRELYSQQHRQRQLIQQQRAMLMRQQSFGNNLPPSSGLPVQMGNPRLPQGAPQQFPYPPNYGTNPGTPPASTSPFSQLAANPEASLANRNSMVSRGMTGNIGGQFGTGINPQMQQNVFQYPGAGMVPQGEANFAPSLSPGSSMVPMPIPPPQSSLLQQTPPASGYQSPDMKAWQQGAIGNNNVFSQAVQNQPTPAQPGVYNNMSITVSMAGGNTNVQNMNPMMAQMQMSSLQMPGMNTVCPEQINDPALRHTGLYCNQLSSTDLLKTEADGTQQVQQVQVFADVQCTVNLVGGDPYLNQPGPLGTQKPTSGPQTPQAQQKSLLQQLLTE
Intestinal-type alkaline phosphatase, sequence (P09923 whole entry): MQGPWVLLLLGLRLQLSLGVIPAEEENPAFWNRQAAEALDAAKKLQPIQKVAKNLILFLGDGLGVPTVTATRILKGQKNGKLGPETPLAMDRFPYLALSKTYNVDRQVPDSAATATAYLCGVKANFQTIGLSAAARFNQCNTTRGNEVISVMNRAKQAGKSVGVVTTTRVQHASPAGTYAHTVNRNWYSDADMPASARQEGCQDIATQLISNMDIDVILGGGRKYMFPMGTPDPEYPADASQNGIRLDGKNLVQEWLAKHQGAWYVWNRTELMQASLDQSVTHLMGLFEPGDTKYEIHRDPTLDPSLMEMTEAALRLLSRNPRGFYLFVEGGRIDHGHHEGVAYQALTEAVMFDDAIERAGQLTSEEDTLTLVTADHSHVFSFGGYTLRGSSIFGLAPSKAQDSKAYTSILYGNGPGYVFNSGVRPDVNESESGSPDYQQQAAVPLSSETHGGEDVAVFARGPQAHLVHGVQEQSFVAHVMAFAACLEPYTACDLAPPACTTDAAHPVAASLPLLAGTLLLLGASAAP

As to `COc1cccc2cc(C(=O)C3=C(O)C(=O)N(Cc4ccco4)C3c3cccnc3)oc12` (configuration not stated), the 50% inhibitory concentration (IC50) in experiment [1] was 2.79 µM (active); in experiment [4] it was > 39.8 µM (not active). For the same molecule, the concentration giving a half-maximal response (EC50) in [2] is > 79.4 µM (not active); in [3], > 79.4 µM (inactive); in experiment [5], > 79.4 µM (not active). Also, the Ki at fMet-Leu-Phe receptor is > 66.7 µM (inactive).

For the molecule `CCOc1ccc(NC(=O)C(C)Oc2ccccc2C(=O)Nc2ccc(C)c(Cl)c2)cc1` (configuration not stated), the EC50 is 17.9 µM (active) in experiment [6], 2.06 µM (active) in experiment [8], 19.6 µM (active) in experiment [9] and > 60 µM (not active) in experiment [10]. Further, the 50% inhibitory concentration (IC50) in experiment [7] was 1.31 µM (active).

As for `CCN(CCCNC(=O)Cn1cc2c(n1)CCCC2)c1cccc(C)c1`, in the experiment with HeLa, the AC50 is > 350 µM (inactive).

Turning to `COc1ccc(NS(=O)(=O)c2cc(C)ccc2NC(=O)c2cc(C)oc2C)cc1`, the EC50 in experiment [11] was 0.173 µM (active); in [12], 1.11 µM (active); in experiment [13], 0.651 µM (active); in experiment [14] it was 7.02 µM (active); in experiment [15], < 0.1 µM (active); in “cells”, 1.07 µM (active). Also, the IC50 with J774.A1 was 0.0632 µM (active).

On to `Cc1ccc(S(=O)(=O)N(CC(=O)Nc2ccc(C)cc2C)C(=O)N2CCN(C)CC2)cc1`, for which the IC50 in experiment [16] is > 100 µM (inactive).

Take `O=C(N/N=C/c1cc([N+](=O)[O-])ccc1O)Nc1ccccc1`: the CC50 in the experiment on Vero is 35.1 µM (active). Further, the IC50 at Beta-galactosidase was > 66.6 µM (inactive).

As a reminder, the IC50 is the midpoint of a concentration-inhibition curve. As usually defined, the EC50 is the midpoint of the concentration-response curve. By Ki is commonly meant a dissociation constant, usually derived from enzyme kinetics or from competition with a known ligand. The AC50 is the concentration at which the activity in the assay is half-maximal. One may read the CC50 as the concentration at which the toxic effect on the cells reaches its halfway point.
